The source of these data is patent US5387585A, “Imidazodiazepine derivatives” (Hoffmann-La Roche Inc., priority 1991, dated 1995).

The structures appear in SMILES notation.

Experiment [1] has as its target central benzodiazepine receptors. Nature of the experiment: 3H-Flumazenil binding test in vitro. As to conditions: inhibition of specific binding of tritiated flumazenil, rat cortex. The protocol:
3H-Flumazenil binding test
The affinity of compounds of formula I to the central benzodiazepine receptors was established in vitro according to the methods described in Nature 294, 763-765 (1981) and J. Neurochemistry 37, 714-722 (1981). According to these methods, the inhibition of the binding of tritiated flumazenil to the specific benzodiazepine receptors in the cortex of rats by the respective test substances is determined. The IC50 ("50% inhibiting concentration") denotes that concentration of the respective test substance which brings about a 50 percent inhibition of the specific binding of tritiated flumazenil to the specific benzodiazepine receptors in the cortex of rats.

The subject of experiment [2] is rat. Nature of the experiment: Conflict test in the rat. To be noted: po, 30 minutes before the 1-hour conflict test, read-out: Conflict test, rat, FSD (first significant anxiolytically-active dosage). The experiment is classed as in vivo. The protocol: The test apparatus is a one-key Skinner box having a feed pellet dispenser. At least 8 hungry rats are usually employed per substance and dosage for the testing of potential anxiolytics. Rats which respond to the known anxiolytic chlorodiazepoxide are used. The test substances, which are dissolved or suspended in a mixture of 10 ml of distilled water and 2 drops of Tween 80, are administered to the test animals by means of a probang 30 minutes before the 1-hour conflict test. During the test, in which each press of the key for a feed pellet is combined with a foot shock (conflict), the number key activations is registered. Each test animal serves as its own control in that it is pre-treated once with test substance and once with sodium chloride solution.
The first significant anxiolytically-active dosage (FSD) is determined with the Wilcoxon test (comparison of pairs) by comparing directly the number of key activations in the main test (feed pellet +foot shock after pre-treatment with test substance) with the number of key activations in the control test (feed pellet +foot shock after pre-treatment with sodium chloride solution).

Experiment [3] concerns female mice (Charles-River). Nature of the experiment: Reversal of the action of meclonazepam in the rotating rod test. It counts as in vivo. As to conditions: iv, 0.5 h; mouse, i.v., after 5 mg/kg meclonazepam i.p.; 50% of animals remain on rod; read-out: Anti-meclonazepam, rotating rod, mouse, ID50. The protocol: Reversal of the action of meclonazepam in the rotating rod test
Test description: female mice (Charles-River, Pans) weighing 19-21 g are used, They have free access to feed and drinking water up to 1 h; before the beginning of the test. They are brought into the test laboratory at lent 30 min. before the test.
In the rotating rod test the animals are placed on a horizontally arranged, smooth metal rod having a diameter of 3 cm, which is rotated at 2 revolutions per min. Initially, the animals are given the opportunity of familiarizing themselves with the test situation for 30sec. Subsequently, those animals which succeed in remaining on the rod for at least 1 min. are selected.
Determination of the reversal of the activity of meclonazepam: 5 mg/kg of meclonazepam are administered intraperitonally to the animals as a suspension in a 0.3% aqueous Tween 80 solution. This causes an inability to stay on the rotating red, which lasts for several hours. 20 min. later, a fine suspension of the test preparation in a 0.3% Tween 80 solution in water is administered intravenously. 30 min. later, it is determined whether the animals can stay on the rod for at least I min. The dosage at which 50% of the animals are capable of remaining on the rod is determined (ID50).

Experiment [4] deals with Male DBA 2J mice. Nature of the experiment: Audiogenic seizures (anticonvulsive test). The experiment is classed as in vivo. To be noted: po, 0.5 h; mouse, p.o., prevention of tonic convulsions in 50% of animals, 30 minutes before test; read-out: Audiogenic seizure, mouse, ED50. The protocol:
The anticonvulsive properties of the compounds of formula I can be determined, for example, in the test described hereinafter.
The test apparatus is a soundproofed one-key box having a built-in sound source. Male DBA 2J mice aged 21 days and weighing 7-11 g are employed for the testing of the substances. These mice are an animal model for epilepsy in which sonic irradiation causes seizures. The test substances are employed as aqueous suspensions of different concentration and are administered to the experimental animals orally or intraperitonally in an amount of 10 ml/kg 30 minutes before the beginning of the test. The test animals are exposed for 60 seconds to a sonic irradiation of 110 dB/14 KHz. This produces in untreated animals symptoms such as racing around, cronic seizures and tonic convulsions. The ED50 value, that is, that dosage of a test substance which in :50% of the test animals prevents the tonic convulsions caused by the sonic irradiation, is determined.

Regarding `c1ccc2c(c1)-c1ncnn1Cc1c(-c3nc(C4CC4)no3)ncn1-2` [A, 10-(3-cyclopropyl-1,2,4-oxadiazol-5-yl)-9H-imidazo[1,5-a][1,2,4]triazolo[1,5-d][1,4]benzodiazepine], the IC50 (as a rule, the concentration that gives 50% inhibition) in experiment [1] came to 1.3 nM. In addition, the minimal effective dose in experiment [2] came out at 0.3 mg/kg. Besides, in experiment [3], the ED50 is 1.5 mg/kg.
In the case of `Fc1ccc2c(c1)-c1ncnn1Cc1c(-c3nc(C4CC4)no3)ncn1-2` [B, 10-(3-cyclopropyl-1,2,4-oxadiazol-5-yl)-3-fluoro-9H-imidazo[1,5-a][1,2,4]triazolo[1,5-d][1,4]benzodiazepine], the IC50 in experiment [1] is 2.5 nM. The minimal effective dose in experiment [2] is 0.1 mg/kg. The values for the ED50 in experiment [4] and in experiment [3] were 0.27 mg/kg and 0.8 mg/kg, respectively.
Taken in the same sequence, the figures for `Fc1ccc2c(c1)-c1ncnn1Cc1c(-c3noc(C4CC4)n3)ncn1-2` [C, 10-(5-cyclopropyl-1,2,4-oxadiazol-3-yl)-3-fluoro-9H-imidazo[1,5-a][1,2,4]triazolo[1,5-d][1,4]benzodiazepine] were 0.91 nM, 0.003 mg/kg, 0.015 mg/kg and 0.17 mg/kg.
With `c1ccc2c(c1)-c1ncnn1Cc1c(-c3noc(C4CC4)n3)ncn1-2` [D, 10-(5-cyclopropyl-1,2,4-oxadiazol-3-yl)-9H-imidazo[1,5-a][1,2,4]triazolo[1,5-d][1,4]benzodiazepine], in experiment [1], the IC50 was found to be 0.33 nM. Besides, the minimal effective dose in experiment [2] is 3 mg/kg. Moreover, the results for the ED50 in experiment [4] and in experiment [3] were 4.2 mg/kg and 0.08 mg/kg, respectively.
In turn, `Clc1ccc2c(c1)-c1nccn1Cc1c(-c3noc(C4CC4)n3)ncn1-2` [E, 3-chloro-10-(5-cyclopropyl-1,2,4-oxadiazol-3-yl)-9H-diimidazo[1,5-a:1',2'-d][1,4]benzodiazepine] had an IC50 in experiment [1] of 2.9 nM. Also, the minimal effective dose in experiment [2] was 1 mg/kg. Moreover, the ED50 in experiment [4] turned out to be 0.21 mg/kg.
Consider `CCOCc1nc(-c2ncn3c2Cn2ncnc2-c2cc(F)ccc2-3)no1` [F, 10-[5-(ethoxymethyl)-1,2,4-oxadiazol-3-yl]-3-fluoro-9H-imidazo[1,5-a][1,2,4]triazolo[1,5-d][1,4]benzo-diazepine], for which the IC50 in experiment [1] turned out to be 3 nM. Moreover, the minimal effective dose in experiment [2] came out at 0.1 mg/kg. Moreover, the ED50 in experiment [4] stood at 0.11 mg/kg; in experiment [3], 1.8 mg/kg.
The molecule `Clc1cccc2c1-c1ncnn1Cc1c(-c3noc(C4CC4)n3)ncn1-2` [G, 4-Chloro-10-(5-cyclopropyl-1,2,4-oxadiazol-3-yl)-9H-imidazo[1,5-a][1,2,4]triazolo[1,5-d][1,4]benzodiazepine] registered an IC50 in experiment [1] of 0.6 nM. Also, the ED50 in experiment [3] came out at 0.0047 mg/kg.
The molecule `Clc1cccc2c1-c1nccn1Cc1c(-c3nc(C4CC4)no3)ncn1-2` [H, 4-chloro-10-(3-cyclopropyl-1,2,4-oxadiazol-5-yl)-9H-diimidazo[1,5-a:1',2'-d][1,4]benzodiazepine] displayed an IC50 in experiment [1] of 0.29 nM. Moreover, the minimal effective dose in experiment [2] came to 0.001 mg/kg. Moreover, the results for the ED50 in experiment [4] and in experiment [3] were 0.0039 mg/kg and 0.1 mg/kg, respectively.
For the molecule `Clc1cccc2c1-c1nccn1Cc1c(-c3noc(C4CC4)n3)ncn1-2` [I, 4-chloro-10-(5-cyclopropyl-1,2,4-oxadiazol-3-yl)-9H-diimidazo[1,5-a:1',2'-d][1,4]benzodiazepine], the IC50 in experiment [1] stood at 0.3 nM. Moreover, the minimal effective dose in experiment [2] stood at 0.03 mg/kg. The ED50 in experiment [4] is 0.00011 mg/kg.
